Results taken from patent publication US10617636B2, “Cannabis infused sweeteners and elixirs” (SRE Wellness, Inc., priority 2016, dated 2020).

Assay: Emulsification of coconut oil and water with different emulsifiers (Example 2)
Assay type: physicochemical
Details: coconut oils solid and liquid (MCT); emulsifying agent tested
Procedure: Several experiments were run using several different emulsifiers and combinations of different coconut oils: solid and liquid (MCT). (Note: liquid MCT is coconut oil that has medium chain triglyceride).
The method used to produce the invention emulsifications, included first heating extra virgin organic coconut oil to between 120 to 220 degrees F. CO2 extracted cannabis oil is added. In a high speed blender (or similar machine) coconut water is added to the coconut fat (oil) to ensure emulsification. While blending, xanthan gum powder is added in an amount between 0.15% and 0.45% of the total volume of finished product. Percentages used herein are on a dry weight basis and are based on the total volume of the finished product. The blender is run at high speed for between 30 seconds and 2.

cyclodextrin
emulsification of the oil and water (result in words): good results
